Measurements from ChEMBL document CHEMBL3352059, “Neuroprotective effects of a brain permeant 6-aminoquinoxaline derivative in cell culture conditions that model the loss of dopaminergic neurons in Parkinson disease” (Eur J Med Chem, 2015).
Converted amounts (≈) assume the structure as drawn. Values belong to the compound of their own block, whether it stands above or below them. The source made the active and inactive calls. The calls are words filed in the database; no cut-off is given here.

How the values were obtained:
[1] = species: Rattus norvegicus; assay: Neuroprotective effect in Sprague-Dawley rat DA neurons after 10 days by immunofluorescence assay; format: functional
[2] = species: Rattus norvegicus; assay: Neuroprotective effect in Sprague-Dawley rat DA neurons assessed as developement of neuritic network after 10 days by microscopic analysis relative to control; format: functional
[3] = species: Rattus norvegicus; assay: Neuroprotective effect in Sprague-Dawley rat DA neurons assessed as [3H]-DA uptake after 10 days by liquid scintillation spectrometry relative to control; format: functional
[4] = Antioxidant activity assessed as radical scavenging activity after 1 hr by ABTS competition assay; format: physicochemical
[5] = Aqueous solubility of the compound at pH 7.4 after 5 mins by HPLC analysis; format: physicochemical
[6] = species: Rattus norvegicus; assay: Neuroprotective effect in Sprague-Dawley rat DA neurons assessed as [3H]-DA uptake at 10 uM after 10 days by liquid scintillation spectrometry relative to control; format: functional
[7] = species: Rattus norvegicus; assay: Neuroprotective effect in Sprague-Dawley rat DA neurons at 10 uM after 10 days by immunofluorescence assay; format: functional
[8] = species: Rattus norvegicus; assay: Neuroprotective effect in Sprague-Dawley rat DA neurons assessed as developement of neuritic network at 10 uM after 10 days by microscopic analysis relative to control; format: functional
[9] = species: Rattus norvegicus; assay: Antiproliferative activity at Sprague-Dawley rat DA neurons assessed as reduction of [3H]-thymidine incorporation at 1 mM after 8 days by liquid scintillation spectrometry; format: functional
[10] = species: Rattus norvegicus; assay: Neuroprotective effect in Sprague-Dawley rat DA neurons at 1 mM after 10 days by immunofluorescence assay; format: functional
[11] = species: Rattus norvegicus; assay: Neuroprotective effect in Sprague-Dawley rat DA neurons at 10 uM under chronic oxidative stress condition; format: functional
[12] = tested on: Striatum; assay: Drug uptake in C57BL/6J mouse striatum at 75 mg/kg, po after 1 hr by MALDI-TOF mass spectrometry; format: ADME, organism-based; design: dose 75 mg/kg, route oral; conditions: in vivo
[13] = species: Rattus norvegicus; assay: Neuroprotective effect in Sprague-Dawley rat DA neurons at 100 uM in presence of anti-GDNF antibody AB-212-NA; format: functional
[14] = tested on: Mus musculus; assay: Toxicity in C57BL/6J mouse assessed as change in food intake at 150 mg/kg, po bid administered for 4 days followed by single dose on day 5 […]; format: organism-based; design: dose 150 mg/kg, route oral; conditions: in vivo, 96 h
[15] = Ratio of drug uptake from brain to plasma in C57BL/6J mouse at 150 mg/kg, po bid administered for 4 days followed by single dose on day 5 measured 1 hr post last dose; format: ADME, organism-based; design: dose 150 mg/kg, route oral; conditions: read-out: BPR
[16] = tested on: Brain; assay: Drug uptake in C57BL/6J mouse brain at 150 mg/kg, po bid administered for 4 days followed by single dose on day 5 measured 1 hr post last dose; format: ADME, organism-based; design: dose 150 mg/kg, route oral; conditions: in vivo
[17] = species: Rattus norvegicus; assay: Neuroprotective effect in Sprague-Dawley rat DA neurons under chronic oxidative stress condition; format: functional
[18] = species: Rattus norvegicus; assay: Antiproliferative activity at Sprague-Dawley rat DA neurons assessed as reduction of [3H]-thymidine incorporation at 50 to 100 uM after 8 days by liquid scintillation spectrometry; format: functional
[19] = species: Rattus norvegicus; assay: Neuroprotective effect in Sprague-Dawley rat DA neurons assessed as developement of neuritic network at 100 uM after 10 days by microscopic analysis relative to control; format: functional
[20] = species: Rattus norvegicus; assay: Neuroprotective effect in Sprague-Dawley rat DA neurons assessed as [3H]-DA uptake at 100 uM after 10 days by liquid scintillation spectrometry relative to control; format: functional
[21] = tested on: Mus musculus; assay: Toxicity in C57BL/6J mouse assessed as behavioral change at 150 mg/kg, po bid administered for 4 days followed by single dose on day 5 […]; format: organism-based; design: dose 150 mg/kg, route oral; conditions: in vivo, 96 h
[22] = tested on: Nucleic Acid; assay: Ratio of drug uptake in C57BL/6J mouse striatum to cortical area at 75 mg/kg, po after 1 hr by MALDI-TOF mass spectrometry; format: ADME, organism-based; design: dose 75 mg/kg, route oral; conditions: in vivo
[23] = species: Rattus norvegicus; assay: Neuroprotective effect in Sprague-Dawley rat DA neurons at 100 uM after 10 days by immunofluorescence assay; format: functional
[24] = Drug uptake in C57BL/6J mouse ventral mesencephalon at 75 mg/kg, po after 1 hr by MALDI-TOF mass spectrometry; format: ADME, organism-based; design: dose 75 mg/kg, route oral; conditions: in vivo
[25] = tested on: Mus musculus; assay: Toxicity in C57BL/6J mouse assessed as change in body weight at 150 mg/kg, po bid administered for 4 days followed by single dose on day 5 […]; format: organism-based; design: dose 150 mg/kg, route oral; conditions: in vivo, 96 h
[26] = tested on: Brain; assay: Drug uptake in C57BL/6J mouse brain at 75 mg/kg, po after 1 hr by MALDI-TOF mass spectrometry; format: ADME, organism-based; design: dose 75 mg/kg, route oral; conditions: in vivo
[27] = species: Rattus norvegicus; assay: Neuroprotective effect in Sprague-Dawley rat DA neurons under GDNF deprived condition at 50 to 100 uM; format: functional

Compound: CCCCCCc1nc2ccc(N)cc2nc1CCCC
Activity [1]: inactive | Activity [2]: inactive | Activity [3]: inactive

Compound: CCCCc1cnc2ccc(N)cc2n1
Activity [1]: inactive | Activity [2]: inactive | Activity [3]: inactive

Compound: CCCCc1nc2cc(N)ccc2nc1C
Activity [1]: inactive | Activity [2]: inactive | Activity [3]: inactive

Compound: Nc1ccc2nccnc2c1
Activity [1]: inactive | Activity [2]: inactive | Activity [3]: inactive

IC50 [4]: 270 µM
Compound: Cc1c(C)c2c(c(C)c1O)CCC(C)(C(=O)O)O2 (configuration not stated) [TROLOX]

solubility at 5 min [5]: 5 µM (≈ 1.85 µg/mL)
Compound: CCCCCCCCCCCCCCCNc1ccc2nc(C)cnc2c1
Activity [6]: Active | Activity [7]: inactive | Activity [8]: Active

Compound: CCCC(=O)Nc1ncnc2c1ncn2[C@@H]1O[C@@H]2COP(=O)(O)O[C@H]2[C@H]1OC(=O)CCC
Activity [9]: Active | Activity [10]: Active

Compound: Cc1cnc2cc(N)ccc2n1
Activity [1]: inactive | Activity [2]: inactive | Activity [3]: inactive

Drug uptake [12]: Active | solubility at 5 min [5]: 125 µM (≈ 29.4 µg/mL) | Kp at 1 h [15]: 1 | Drug uptake [16]: Active | Ratio [22]: 2.7 | IC50 [4]: 350 µM | Drug uptake [24]: Active | Drug uptake [26]: Active
Compound: Cc1nc2ccc(N)cc2nc1-c1ccccc1
Activity [11]: Active | Activity [13]: Active | Activity [14]: Non-toxic | Activity [17]: Dose-dependent effect | Activity [18]: Active | Activity [19]: Active | Activity [20]: Active | Activity [21]: Non-toxic | Activity [23]: Active | Activity [25]: Non-toxic | Activity [27]: Active

Compound: CC(=O)N(O)CCCCCNC(=O)CCC(=O)N(O)CCCCCNC(=O)CCC(=O)N(O)CCCCCN
Activity [11]: Active
